Series [1] has as its target T1, tau protein (Homo sapiens, UniProt P10636).
T1 construct: BiFC fluorescent-protein fragments (type and halves not specified); expressed in transfected cells
Description: Tau-BiFC cell model, inhibition of Forskolin-induced tau protein aggregation. Format: cell-based. The following applies: Forskolin 30 μM, 48 hours; for Tau BiFC in cells Response (% @10 μM): 10 μM compound, Forskolin-only group = 100% tau protein-aggregated state; for IC50: tau-BiFC cells. In outline:
(§1)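 Tau-BiFC cells co-treated 48 h with 30 μM forskolin and compounds (1, 3, 10 μM screen; 0.01–30 μM dose-response). BiFC fluorescence normalized to forskolin-only (100% aggregation) minus untreated gives aggregation inhibition and IC50; viability as Hoechst-stained nuclei count relative to forskolin-only.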

Series [2] deals with Tau-BiFC cells. Nature of the series: Cell viability (stained nuclei count) in Tau-BiFC cells. The class given is cell-based. The settings on record: 10 μM compound, 48 hours; Forskolin-only group = 100% cell viability. In outline: as §1
Series [3] is described as follows: Liver microsome stability. Format: in vitro ADME. The settings on record: 1 μM compound, 37° C., 30 minutes, NADPH; for Dog (%) amount of substrate remaining after the reaction: dog liver microsomes 0.25 mg/mL; for Human (%) amount of substrate remaining after the reaction: human liver microsomes 0.25 mg/mL; for Mouse (%) amount of substrate remaining after the reaction: mouse liver microsomes 0.25 mg/mL; for Rat (%) amount of substrate remaining after the reaction: rat liver microsomes 0.25 mg/mL. As for the experimental part: The stability of liver microsomes due to the compounds prepared according to Examples 1 to 57 was confirmed. Specifically, four types of liver microsomes (human, dog, rat, and mouse, each 0.25 mg/mL), a 0.1 M phosphate buffer solution (pH 7.4), and each of the compounds at a concentration of 1 μM were mixed and pre-cultured at 37° C. for 5 minutes and further cultured at 37° C. for 30 minutes together with an NADPH generation system solution added thereto. Thereafter, the reaction was terminated by adding an acetonitrile solution containing an internal standard material (chloropropamide) and centrifuged for 5 minutes (14,000 rpm, 4° C.), and then a supernatant was injected into an LC-MS/MS system for analysis of substrate drugs to thereby evaluate metabolic stability due to 8 types of compounds.
The amount of the substrate remaining after the reaction was analyzed using the Shimadzu Nexera XR system and TSQ Vantage (Thermo). In an HPLC column, Kinetex XB-C18 (2.1 mm×100 mm, particle size of 2.6 μm; Phenomenex, USA) was used, and mobile phases were (A) distilled water containing 0.1% formic acid and (B) acetonitrile containing 0.1% formic acid. Analyst software (version 1.6.3) and Xcalibur (version 1.6.1) were used for data analysis.

T1 sequence (P10636 1-441 isoform P10636-8): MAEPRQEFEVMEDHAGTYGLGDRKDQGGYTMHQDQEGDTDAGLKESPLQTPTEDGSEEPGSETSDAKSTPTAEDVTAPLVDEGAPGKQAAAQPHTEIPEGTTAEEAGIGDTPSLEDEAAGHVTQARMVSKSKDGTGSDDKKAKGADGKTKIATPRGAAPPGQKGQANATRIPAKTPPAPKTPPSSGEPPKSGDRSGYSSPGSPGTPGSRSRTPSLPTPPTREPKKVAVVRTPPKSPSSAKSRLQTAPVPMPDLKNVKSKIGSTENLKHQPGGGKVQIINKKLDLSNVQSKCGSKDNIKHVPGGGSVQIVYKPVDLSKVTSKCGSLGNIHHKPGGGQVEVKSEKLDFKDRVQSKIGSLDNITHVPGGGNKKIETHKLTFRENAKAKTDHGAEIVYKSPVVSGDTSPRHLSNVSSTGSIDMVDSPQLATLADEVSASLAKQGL

In the case of `Cn1c(=O)oc2cc(NN=C(C#N)C#N)ccc21` [Compound 16, (3-methyl-2-oxo-2,3-dihydrobenzo[d]oxazol-6-yl)carbonohydrazonoyl dicyanide], in series [1], the “Tau BiFC in cells Response (% @10 μM)” value worked out at 0% and half-maximal inhibition (IC50) required 600 nM. In addition, in series [2], the “Cell viability (% @10 μM)” value is 129.8%. Further, in series [3], the “Dog (%) amount of substrate remaining after the reaction” value (from here on “Dog (%) amount of substrate remaining”) was 95.7%, the “Human (%) amount of substrate remaining after the reaction” value (“Human (%) amount of substrate remaining” below) stood at 98.9%, the “Mouse (%) amount of substrate remaining after the reaction” value (“Mouse (%) amount of substrate remaining” for short) is recorded as 81% and the “Rat (%) amount of substrate remaining after the reaction” value (from here on “Rat (%) amount of substrate remaining”) is 89.1%.
Take `Cn1c(=O)n(C(F)F)c2cc(NN=C(C#N)C#N)ccc21` [Compound 37, (3-(difluoromethyl)-1-methyl-2-oxo-2,3-dihydro-1H-benzo[d]imidazol-5-yl)carbonohydrazonoyl dicyanide]: in series [1], the “Tau BiFC in cells Response (% @10 μM)” value was −49% and the IC50 worked out at 200 nM. Moreover, the “Cell viability (% @10 μM)” value in series [2] worked out at 121%. In series [3], the “Human (%) amount of substrate remaining” value is 84.9%, the “Mouse (%) amount of substrate remaining” value was found to be 75.7% and the “Rat (%) amount of substrate remaining” value is on record as 58.5%.
As for `CC(C)n1c(=O)sc2cc(NN=C(C#N)C#N)ccc21` [Compound 18, (3-isopropyl-2-oxo-2,3-dihydrobenzo[d]thiazol-6-yl)carbonohydrazonoyl dicyanide], in series [1], the “Tau BiFC in cells Response (% @10 μM)” value is 0% and the IC50 came out at 40 nM. The “Cell viability (% @10 μM)” value in series [2] is on record as 110.7%. Moreover, in series [3], the “Dog (%) amount of substrate remaining” value came out at 93.8%, the “Human (%) amount of substrate remaining” value is on record as 85.1%, the “Mouse (%) amount of substrate remaining” value was found to be 71.3% and the “Rat (%) amount of substrate remaining” value stood at 70.8%.
Turning to `Cn1c(=O)sc2cc(NN=C(C#N)C#N)ccc21` [Compound 14, (3-methyl-2-oxo-2,3-dihydrobenzo[d]thiazol-6-yl)carbonohydrazonoyl dicyanide], in series [1], the “Tau BiFC in cells Response (% @10 μM)” value worked out at 0% and the IC50 is 60 nM. The “Cell viability (% @10 μM)” value in series [2] stood at 129.1%. For the same molecule, in series [3], the “Dog (%) amount of substrate remaining” value was determined as 73.3%, the “Human (%) amount of substrate remaining” value was determined as 98.3%, the “Mouse (%) amount of substrate remaining” value came out at 59.6% and the “Rat (%) amount of substrate remaining” value is on record as 87.1%.
On to `CC(C)n1c(=O)n(C2CC2)c2ccc(NN=C(C#N)C#N)cc21` [Compound 42, (1-cyclopropyl-3-isopropyl-2-oxo-2,3-dihydro-1H-benzo[d]imidazol-5-yl)carbonohydrazonoyl dicyanide], for which, in series [1], the “Tau BiFC in cells Response (% @10 μM)” value is −52% and inhibition was half-maximal at 80 nM (IC50). For the same molecule, the “Cell viability (% @10 μM)” value in series [2] was determined as 124%. Moreover, in series [3], the “Human (%) amount of substrate remaining” value came to 81.7%, the “Mouse (%) amount of substrate remaining” value worked out at 63.4% and the “Rat (%) amount of substrate remaining” value came to 78.7%.
For the molecule `Cn1ccc2ccc(NN=C(C#N)C#N)cc2c1=O` [Compound 2, (2-methyl-1-oxo-1,2-dihydroisoquinolin-7-yl)carbonohydrazonoyl dicyanide], in series [1], the “Tau BiFC in cells Response (% @10 μM)” value was 0%. Moreover, the “Cell viability (% @10 μM)” value in series [2] is 57.5%. In series [3], the “Dog (%) amount of substrate remaining” value is recorded as 2.5%, the “Human (%) amount of substrate remaining” value is 27%, the “Mouse (%) amount of substrate remaining” value stood at 63.4% and the “Rat (%) amount of substrate remaining” value was determined as 88%.
For the molecule `N#CC(C#N)=NNc1ccc2[nH]c(=O)oc2c1` [Compound 15, (2-oxo-2,3-dihydrobenzo[d]oxazol-6-yl)carbonohydrazonoyl dicyanide], in series [1], the “Tau BiFC in cells Response (% @10 μM)” value is 5.5% and the IC50 is 8400 nM. The “Cell viability (% @10 μM)” value in series [2] is 127.7%. Moreover, in series [3], the “Dog (%) amount of substrate remaining” value is reported as 97.1%, the “Human (%) amount of substrate remaining” value came out at 74.2%, the “Mouse (%) amount of substrate remaining” value was >100% and the “Rat (%) amount of substrate remaining” value is reported as 92.5%.
Turning to `CCn1c(=O)n(C)c2ccc(NN=C(C#N)C#N)cc21` [Compound 35, (3-ethyl-1-methyl-2-oxo-2,3-dihydro-1H-benzo[d]imidazol-5-yl)carbonohydrazonoyl dicyanide], in series [1], the “Tau BiFC in cells Response (% @10 μM)” value is −44% and the midpoint of inhibition, the IC50, lay at 10 nM. For the same molecule, the “Cell viability (% @10 μM)” value in series [2] turned out to be 130%. Moreover, in series [3], the “Human (%) amount of substrate remaining” value turned out to be 98.7%, the “Mouse (%) amount of substrate remaining” value is 87.1% and the “Rat (%) amount of substrate remaining” value is recorded as 86%.
As to `Cn1c(=O)[nH]c2cc(NN=C(C#N)C#N)ccc21` [Compound 17, (1-methyl-2-oxo-2,3-dihydro-1H-benzo[d]imidazol-5-yl)carbonohydrazonoyl dicyanide], in series [1], the “Tau BiFC in cells Response (% @10 μM)” value is on record as 0% and the IC50 stood at 1200 nM. In series [2], the “Cell viability (% @10 μM)” value is reported as 94.38%. In series [3], the “Dog (%) amount of substrate remaining” value is on record as >100%, the “Human (%) amount of substrate remaining” value is recorded as >100%, the “Mouse (%) amount of substrate remaining” value stood at 95.7% and the “Rat (%) amount of substrate remaining” value is given as >100%.

The record behind these values is patent US12590066B2, “Fused-heterocyclyl-carbonohydrazonoyl dicyanide compounds and use thereof” (KOREA INSTITUTE OF SCIENCE AND TECHNOLOGY, priority 2020, dated 2026).
